Results as given in patent US7795444B2, “Human protein tyrosine phosphatase inhibitors and methods of use” (Warner Chilcott Company, priority 2006, dated 2010).

What was measured:
[1] = target: T1, PTP1B (Homo sapiens, UniProt P18031); assay: PTP1B inhibition, IC50 (Table A); format: biochemical
T1 sequence (P18031 1-435): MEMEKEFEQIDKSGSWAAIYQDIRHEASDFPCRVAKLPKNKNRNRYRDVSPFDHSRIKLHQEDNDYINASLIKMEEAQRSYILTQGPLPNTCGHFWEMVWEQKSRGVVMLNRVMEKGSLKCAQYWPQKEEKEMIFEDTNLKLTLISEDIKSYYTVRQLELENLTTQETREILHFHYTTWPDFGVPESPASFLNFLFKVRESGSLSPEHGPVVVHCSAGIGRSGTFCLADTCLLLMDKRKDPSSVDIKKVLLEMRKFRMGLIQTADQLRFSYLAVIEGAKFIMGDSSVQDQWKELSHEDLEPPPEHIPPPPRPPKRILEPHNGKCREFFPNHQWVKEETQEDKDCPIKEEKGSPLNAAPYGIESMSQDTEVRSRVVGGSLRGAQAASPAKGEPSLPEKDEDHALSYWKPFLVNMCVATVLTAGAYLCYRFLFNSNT

[2] = target: HPTPβ (Homo sapiens, UniProt P23467); assay: HPTPβ inhibition, IC50 (Table A); format: biochemical
Sequence of HPTPβ (P23467 23-1997): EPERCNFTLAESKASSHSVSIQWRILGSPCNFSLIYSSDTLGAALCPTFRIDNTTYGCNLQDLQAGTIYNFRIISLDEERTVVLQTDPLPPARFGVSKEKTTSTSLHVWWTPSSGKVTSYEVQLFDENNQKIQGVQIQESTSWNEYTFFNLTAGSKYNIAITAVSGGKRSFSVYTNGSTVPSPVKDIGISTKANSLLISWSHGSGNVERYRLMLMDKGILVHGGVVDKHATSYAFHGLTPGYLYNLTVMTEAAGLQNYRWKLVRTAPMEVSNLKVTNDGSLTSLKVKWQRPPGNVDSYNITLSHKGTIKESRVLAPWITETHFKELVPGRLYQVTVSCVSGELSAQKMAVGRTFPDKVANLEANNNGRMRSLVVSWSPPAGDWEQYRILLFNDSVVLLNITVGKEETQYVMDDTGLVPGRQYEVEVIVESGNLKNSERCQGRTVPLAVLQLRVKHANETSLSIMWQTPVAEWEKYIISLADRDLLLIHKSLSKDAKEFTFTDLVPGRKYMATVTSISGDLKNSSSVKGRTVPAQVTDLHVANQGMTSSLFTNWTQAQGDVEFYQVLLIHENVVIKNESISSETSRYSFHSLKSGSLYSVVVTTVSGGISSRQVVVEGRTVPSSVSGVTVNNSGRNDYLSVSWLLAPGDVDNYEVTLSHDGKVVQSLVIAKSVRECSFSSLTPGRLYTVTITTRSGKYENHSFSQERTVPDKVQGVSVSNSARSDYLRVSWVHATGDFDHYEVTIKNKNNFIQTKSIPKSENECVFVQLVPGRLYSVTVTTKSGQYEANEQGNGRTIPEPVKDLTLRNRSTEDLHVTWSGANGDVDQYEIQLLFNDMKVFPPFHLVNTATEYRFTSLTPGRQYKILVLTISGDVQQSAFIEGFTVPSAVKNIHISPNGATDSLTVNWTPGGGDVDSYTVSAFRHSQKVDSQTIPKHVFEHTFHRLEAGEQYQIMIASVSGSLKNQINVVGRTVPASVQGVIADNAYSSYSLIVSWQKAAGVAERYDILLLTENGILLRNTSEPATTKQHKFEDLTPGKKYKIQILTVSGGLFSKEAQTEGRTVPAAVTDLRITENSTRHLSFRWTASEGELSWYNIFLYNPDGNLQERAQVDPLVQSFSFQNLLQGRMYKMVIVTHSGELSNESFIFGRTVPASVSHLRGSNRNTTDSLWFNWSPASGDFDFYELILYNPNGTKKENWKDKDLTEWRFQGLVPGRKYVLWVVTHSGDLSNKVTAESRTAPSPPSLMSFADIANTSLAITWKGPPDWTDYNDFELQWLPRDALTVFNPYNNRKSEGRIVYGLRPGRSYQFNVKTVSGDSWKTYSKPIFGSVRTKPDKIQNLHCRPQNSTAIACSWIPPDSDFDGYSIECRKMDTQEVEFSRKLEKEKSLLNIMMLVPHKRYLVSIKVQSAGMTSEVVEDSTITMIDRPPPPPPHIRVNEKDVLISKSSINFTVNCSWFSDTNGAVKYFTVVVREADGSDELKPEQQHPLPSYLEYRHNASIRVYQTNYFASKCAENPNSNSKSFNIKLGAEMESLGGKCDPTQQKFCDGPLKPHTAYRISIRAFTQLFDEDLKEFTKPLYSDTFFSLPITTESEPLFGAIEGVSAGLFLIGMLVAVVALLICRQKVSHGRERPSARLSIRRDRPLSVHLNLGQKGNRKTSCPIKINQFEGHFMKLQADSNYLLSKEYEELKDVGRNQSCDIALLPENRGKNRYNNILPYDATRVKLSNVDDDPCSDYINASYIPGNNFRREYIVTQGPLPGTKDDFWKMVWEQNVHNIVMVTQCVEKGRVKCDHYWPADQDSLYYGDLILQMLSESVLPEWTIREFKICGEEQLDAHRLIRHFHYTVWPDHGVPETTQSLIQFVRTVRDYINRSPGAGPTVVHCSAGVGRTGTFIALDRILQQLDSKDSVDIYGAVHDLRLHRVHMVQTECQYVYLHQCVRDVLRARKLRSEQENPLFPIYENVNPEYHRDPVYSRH

Row | Compound | IC50 [1] | IC50 [2]
1 | CCc1csc([C@H](Cc2ccc(NS(=O)(=O)O)cc2)NC(=O)Cc2cccc(F)c2F)n1 [(S)-4-(2-(2-(2,3-Difluorophenyl)acetamido)-2-(4-ethylthiazol-2-yl)ethyl)phenyl-sulfamic acid] | 5360 nM | 28 nM
2 | CCc1csc([C@H](Cc2ccc(NS(=O)(=O)O)cc2)NC(=O)Cc2cccc(OC)c2OC)n1 [(S)-4-(2-(2-(2,3-Dimethoxyphenyl)acetamido)-2-(4-ethylthiazol-2-yl)ethyl)-phenylsulfamic acid] | 25400 nM | 37 nM
3 | CCc1csc([C@H](Cc2ccc(NS(=O)(=O)O)cc2)NC(=O)Cc2ccccc2Cl)n1 [(S)-4-(2-(2-(2-Chlorophenyl)acetamido)-2-(4-ethylthiazol-2-yl)ethyl)phenyl-sulfamic acid] | 22800 nM | 56 nM
4 | CCc1csc([C@H](Cc2ccc(NS(=O)(=O)O)cc2)NC(=O)Cc2ccc(F)c(F)c2)n1 [(S)-4-(2-(2-(3,4-Difluorophenyl)acetamido)-2-(4-ethylthiazol-2-yl)ethyl)phenyl-sulfamic acid] | 23900 nM | 75 nM
5 | CCc1csc([C@H](Cc2ccc(NS(=O)(=O)O)cc2)NC(=O)Cc2ccc(OC)c(OC)c2)n1 [(S)-4-(2-(2-(3,4-Dimethoxyphenyl)acetamido)-2-(4-ethylthiazol-2-yl)ethyl)-phenylsulfamic acid] | 15500 nM | 28 nM
6 | CCc1csc([C@H](Cc2ccc(NS(=O)(=O)O)cc2)NC(=O)Cc2cccc(Cl)c2)n1 [(S)-4-(2-(2-(3-Chlorophenyl)acetamido)-2-(4-ethylthiazol-2-yl)ethyl)phenyl-sulfamic acid] | 13600 nM | 33 nM
7 | CCc1csc([C@H](Cc2ccc(NS(=O)(=O)O)cc2)NC(=O)CCc2cccc(Cl)c2)n1 [(S)-4-(2-(3-(3-Chlorophenyl)propanamido)-2-(4-ethylthiazol-2-yl)ethyl)phenyl-sulfamic acid] | 15300 nM | 0.2 nM
8 | CCc1csc([C@H](Cc2ccc(NS(=O)(=O)O)cc2)NC(=O)Cc2ccccc2F)n1 [(S)-4-(2-(4-Ethylthiazol-2-yl)-2-(2-(2-fluorophenyl)acetamido)ethyl)phenyl-sulfamic acid] | 5360 nM | 12 nM
9 | CCc1csc([C@H](Cc2ccc(NS(=O)(=O)O)cc2)NC(=O)Cc2cccc(F)c2)n1 [(S)-4-(2-(4-Ethylthiazol-2-yl)-2-(2-(3-fluorophenyl)acetamido)ethyl)phenyl-sulfamic acid] | 2850 nM | 0.3 nM
10 | CCc1csc([C@H](Cc2ccc(NS(=O)(=O)O)cc2)NC(=O)Cc2cccc(O)c2)n1 [(S)-4-(2-(4-Ethylthiazol-2-yl)-2-(2-(3-hydroxyphenyl)acetamido)ethyl)phenyl-sulfamic acid] | 6570 nM | 40 nM
11 | CCc1csc([C@H](Cc2ccc(NS(=O)(=O)O)cc2)NC(=O)Cc2cccc(OC)c2)n1 [(S)-4-(2-(4-Ethylthiazol-2-yl)-2-(2-(3-methoxyphenyl)acetamido)ethyl)phenyl-sulfamic acid] | 4050 nM | 8 nM
12 | CCc1csc([C@H](Cc2ccc(NS(=O)(=O)O)cc2)NC(=O)CCc2ccccc2OC)n1 [(S)-4-(2-(4-Ethylthiazol-2-yl)-2-(3-(2-methoxyphenyl)propanamido)ethyl)phenyl-sulfamic acid] | 16900 nM | 3 nM
13 | CCc1csc([C@H](Cc2ccc(NS(=O)(=O)O)cc2)NC(=O)CCc2cccc(OC)c2)n1 [(S)-4-(2-(4-Ethylthiazol-2-yl)-2-(3-(3-methoxyphenyl)propanamido)ethyl)phenyl-sulfamic acid] | 20600 nM | 10 nM
14 | CCc1csc([C@H](Cc2ccc(NS(=O)(=O)O)cc2)NC(=O)CCc2ccc(OC)cc2)n1 [(S)-4-(2-(4-Ethylthiazol-2-yl)-2-(3-(4-methoxyphenyl)propanamido)ethyl)phenyl-sulfamic acid] | 16000 nM | 6 nM
15 | CCc1csc([C@H](Cc2ccc(NS(=O)(=O)O)cc2)NC(=O)CCc2ccccc2)n1 [(S)-4-(2-(4-Ethylthiazol-2-yl)-2-(3-phenylpropanamido)ethyl)phenylsulfamic acid] | 10400 nM | 2 nM
16 | CCc1csc([C@H](Cc2ccc(NS(=O)(=O)O)cc2)NC(=O)c2ccc3c(c2)OCO3)n1 [(S)-4-[2-(Benzo[d][1,3]dioxole-5-carboxamido)-2-(4-ethylthiazol-2-yl)ethyl]phenylsulfamic acid] | 19000 nM | 42 nM
17 | CCc1csc([C@H](Cc2ccc(NS(=O)(=O)O)cc2)NC(=O)Cn2cc(C)c(=O)[nH]c2=O)n1 [(S)-4-{2-(4-Ethylthiazol-2-yl)-2-[2-(5-methyl-2,4-dioxo-3,4-dihydropyrimidin-1(2H)-yl)acetamido]ethyl}phenylsulfamic acid] | 254 nM | 2 nM
18 | CCc1csc([C@H](Cc2ccc(NS(=O)(=O)O)cc2)NC(=O)CN2CCN(CC)C(=O)C2=O)n1 [(S)-4-{2-[2-(4-Ethyl-2,3-dioxopiperazin-1-yl)acetamido]-2-(4-ethylthiazol-2-yl)ethyl}phenylsulfamic acid] | 530 nM | 2 nM
19 | CCc1csc([C@H](Cc2ccc(NS(=O)(=O)O)cc2)NC(=O)Cc2ccccc2)n1 [(S)-{4-[2-(4-Ethylthiazol-2-yl)-2-(phenylacetylamido)ethyl]-phenyl}sulfamic acid] | 22900 nM | 50 nM
20 | (S)-4-(2-(4-Ethylthiazol-2-yl)-2-(2-(2-methoxyphenyl)acetamido)ethyl)phenyl-sulfamic acid | 11700 nM | 14 nM
